The results in this text go back to patent publication US8129417B2, “Substituted octahydrocyclopenta[C]pyrrol-4-amines as calcium channel blockers” (Abbott Laboratories, priority 2008, dated 2012).

Sequence of human Cav2.2 (Q00975 whole entry): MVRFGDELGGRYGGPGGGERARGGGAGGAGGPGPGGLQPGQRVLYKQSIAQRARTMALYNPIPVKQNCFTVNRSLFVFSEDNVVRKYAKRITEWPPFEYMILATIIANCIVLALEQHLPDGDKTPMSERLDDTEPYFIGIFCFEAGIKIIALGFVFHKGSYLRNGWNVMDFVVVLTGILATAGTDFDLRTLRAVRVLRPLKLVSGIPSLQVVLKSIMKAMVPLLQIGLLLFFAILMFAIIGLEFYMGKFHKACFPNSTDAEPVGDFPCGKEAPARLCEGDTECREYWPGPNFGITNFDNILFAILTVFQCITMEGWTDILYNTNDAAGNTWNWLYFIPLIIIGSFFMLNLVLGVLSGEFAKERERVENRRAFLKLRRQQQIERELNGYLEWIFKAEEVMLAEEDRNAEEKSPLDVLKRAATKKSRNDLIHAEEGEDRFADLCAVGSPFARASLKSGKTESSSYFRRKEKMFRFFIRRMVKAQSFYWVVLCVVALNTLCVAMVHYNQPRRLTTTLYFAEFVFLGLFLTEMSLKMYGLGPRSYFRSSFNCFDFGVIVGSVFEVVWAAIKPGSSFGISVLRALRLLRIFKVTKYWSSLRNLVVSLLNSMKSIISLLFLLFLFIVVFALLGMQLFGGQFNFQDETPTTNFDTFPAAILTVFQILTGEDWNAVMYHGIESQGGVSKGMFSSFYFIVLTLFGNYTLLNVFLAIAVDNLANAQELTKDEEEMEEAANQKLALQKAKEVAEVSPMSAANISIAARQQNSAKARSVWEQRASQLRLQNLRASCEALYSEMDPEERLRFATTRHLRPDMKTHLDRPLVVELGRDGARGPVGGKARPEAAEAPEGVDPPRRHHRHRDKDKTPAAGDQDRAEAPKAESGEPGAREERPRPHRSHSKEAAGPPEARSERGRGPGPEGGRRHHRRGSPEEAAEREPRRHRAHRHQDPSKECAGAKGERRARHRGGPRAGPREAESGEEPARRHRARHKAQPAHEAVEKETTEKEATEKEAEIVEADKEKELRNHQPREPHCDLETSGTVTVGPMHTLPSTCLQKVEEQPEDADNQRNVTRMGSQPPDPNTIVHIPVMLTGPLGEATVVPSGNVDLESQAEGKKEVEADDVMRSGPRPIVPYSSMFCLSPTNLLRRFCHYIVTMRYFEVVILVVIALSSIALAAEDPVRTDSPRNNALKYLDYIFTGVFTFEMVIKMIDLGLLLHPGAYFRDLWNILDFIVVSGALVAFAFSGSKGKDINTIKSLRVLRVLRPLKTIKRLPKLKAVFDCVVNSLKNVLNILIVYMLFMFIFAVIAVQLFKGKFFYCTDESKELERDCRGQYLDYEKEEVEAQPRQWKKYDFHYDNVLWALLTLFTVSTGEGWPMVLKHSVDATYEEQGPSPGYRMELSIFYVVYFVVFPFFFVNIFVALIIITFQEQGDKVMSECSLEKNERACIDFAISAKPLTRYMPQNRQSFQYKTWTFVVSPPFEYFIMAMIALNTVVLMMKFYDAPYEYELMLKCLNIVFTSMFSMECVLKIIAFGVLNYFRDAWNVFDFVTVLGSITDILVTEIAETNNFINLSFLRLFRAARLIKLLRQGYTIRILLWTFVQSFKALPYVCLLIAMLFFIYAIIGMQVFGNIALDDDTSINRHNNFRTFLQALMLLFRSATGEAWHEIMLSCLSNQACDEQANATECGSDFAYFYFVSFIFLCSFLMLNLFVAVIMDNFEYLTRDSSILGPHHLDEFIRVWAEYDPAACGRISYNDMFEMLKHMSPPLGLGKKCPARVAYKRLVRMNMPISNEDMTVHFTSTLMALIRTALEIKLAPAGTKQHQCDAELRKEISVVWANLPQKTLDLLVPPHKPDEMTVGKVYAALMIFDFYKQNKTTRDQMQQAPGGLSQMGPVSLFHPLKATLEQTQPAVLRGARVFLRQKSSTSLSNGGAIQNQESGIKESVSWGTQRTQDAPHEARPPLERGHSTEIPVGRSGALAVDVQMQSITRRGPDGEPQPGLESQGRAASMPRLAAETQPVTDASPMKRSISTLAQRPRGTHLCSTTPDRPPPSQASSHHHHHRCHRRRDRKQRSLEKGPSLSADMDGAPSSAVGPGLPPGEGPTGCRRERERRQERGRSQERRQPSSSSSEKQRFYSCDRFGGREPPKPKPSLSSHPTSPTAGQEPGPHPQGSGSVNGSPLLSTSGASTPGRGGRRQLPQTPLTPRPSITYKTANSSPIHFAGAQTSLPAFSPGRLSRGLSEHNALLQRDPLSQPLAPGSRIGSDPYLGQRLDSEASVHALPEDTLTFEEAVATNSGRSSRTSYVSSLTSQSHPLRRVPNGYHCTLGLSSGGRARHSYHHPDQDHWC
Sequence of human Cav2.2 (P54289 25-946 partner limits assumed): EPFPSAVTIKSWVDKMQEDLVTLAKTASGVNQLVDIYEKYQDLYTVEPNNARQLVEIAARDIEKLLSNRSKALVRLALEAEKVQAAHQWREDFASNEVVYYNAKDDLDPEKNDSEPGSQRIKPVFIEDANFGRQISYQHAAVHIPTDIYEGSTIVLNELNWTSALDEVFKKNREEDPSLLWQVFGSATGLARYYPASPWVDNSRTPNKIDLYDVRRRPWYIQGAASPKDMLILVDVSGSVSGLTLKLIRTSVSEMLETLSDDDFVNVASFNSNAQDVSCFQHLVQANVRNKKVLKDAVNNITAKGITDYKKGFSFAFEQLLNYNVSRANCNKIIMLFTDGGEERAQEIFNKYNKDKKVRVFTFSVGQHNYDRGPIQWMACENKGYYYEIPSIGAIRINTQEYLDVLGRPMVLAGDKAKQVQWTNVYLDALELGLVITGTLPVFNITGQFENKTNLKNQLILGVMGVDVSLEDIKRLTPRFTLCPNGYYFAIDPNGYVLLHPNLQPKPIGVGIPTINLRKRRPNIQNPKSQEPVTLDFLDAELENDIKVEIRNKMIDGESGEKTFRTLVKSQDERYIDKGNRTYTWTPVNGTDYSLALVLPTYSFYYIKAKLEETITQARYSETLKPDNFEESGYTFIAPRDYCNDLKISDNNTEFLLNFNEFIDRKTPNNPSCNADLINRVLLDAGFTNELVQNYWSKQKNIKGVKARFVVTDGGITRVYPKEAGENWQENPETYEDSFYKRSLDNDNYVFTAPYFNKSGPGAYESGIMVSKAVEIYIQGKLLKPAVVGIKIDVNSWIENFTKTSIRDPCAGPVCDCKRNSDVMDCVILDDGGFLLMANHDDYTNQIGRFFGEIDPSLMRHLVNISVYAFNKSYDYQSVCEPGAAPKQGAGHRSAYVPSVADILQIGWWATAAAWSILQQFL
Sequence of human Cav2.2 (P54289 947-1103 partner limits assumed): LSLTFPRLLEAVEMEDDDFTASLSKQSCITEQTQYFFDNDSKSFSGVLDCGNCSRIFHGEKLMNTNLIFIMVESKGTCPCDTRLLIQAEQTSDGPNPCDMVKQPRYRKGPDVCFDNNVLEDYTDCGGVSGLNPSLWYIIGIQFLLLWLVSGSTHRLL
Sequence of human Cav2.2 (P54284 whole entry partner): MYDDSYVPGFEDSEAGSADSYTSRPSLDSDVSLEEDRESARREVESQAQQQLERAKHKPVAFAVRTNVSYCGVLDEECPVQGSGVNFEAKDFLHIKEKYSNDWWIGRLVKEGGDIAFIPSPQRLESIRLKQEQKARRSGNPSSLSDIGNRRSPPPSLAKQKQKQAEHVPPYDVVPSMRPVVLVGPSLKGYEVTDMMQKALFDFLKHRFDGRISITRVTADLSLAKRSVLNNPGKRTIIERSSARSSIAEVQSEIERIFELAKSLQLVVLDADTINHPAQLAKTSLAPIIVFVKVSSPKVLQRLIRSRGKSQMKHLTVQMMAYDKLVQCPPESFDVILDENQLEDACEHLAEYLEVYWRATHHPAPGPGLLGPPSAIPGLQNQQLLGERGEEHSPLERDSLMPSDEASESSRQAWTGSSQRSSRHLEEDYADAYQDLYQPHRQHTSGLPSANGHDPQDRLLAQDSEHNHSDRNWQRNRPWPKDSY

For the first test, the target named is human Cav2.2 (Homo sapiens, UniProt Q00975). Description: Assessment of calcium channel activity using FLIPR (Ca2+ influx in IMR32 cells). The test is classed as cell-based. Particulars: 3 minute pre-incubation with compound (*), 2 μM nifedipine, depolarized with 80 mM KCl. Here is the method: (i) In Vitro Methods—Assessment of Calcium Channel Activity Using FLIPR:
The IMR32 cells were maintained in MEM media containing 10% (v/v) FBS, 1% (v/v) antibiotic/antimitotic, 1% (v/v) sodium pyruvate and 1% (v/v) MEM NEAA. Following dissociation in 0.05% (v/v) trypsin/EDTA, cells were seeded into black 1×96-well plates (Corning Cellbind) at a density of 1-1.2×10^5 cells/well and incubated in the maintenance media above for 48 hours at 37° C. […] To determine the IC50 values, the percent inhibition of the compound at each concentration was determined relative to the activity in the absence of inhibitor, and data was fitted using non-linear regression sigmoidal dose response curve analysis with GraphPad Prism®.
Turning to `CC(C)C(C(=O)N[C@H]1CC[C@@H]2CN(CCCc3cccc(C(F)(F)F)c3)C[C@@H]21)c1ccccc1` (stereo partly drawn) [Example 111, 3-methyl-2-phenyl-N-((3aR,4S,6aS)-2-{3-[3-(trifluoromethyl)phenyl]propyl}octahydrocyclopenta[c]pyrrol-4-yl)butanamide], the IC50 turned out to be 2200 nM.

For the molecule `CC(C)(C(=O)N[C@H]1CC[C@@H]2CN(Cc3ccccc3)C[C@@H]21)c1ccccc1` [Example 47, N-[(3aR,4S,6aS)-2-benzyloctahydrocyclopenta[c]pyrrol-4-yl]-2-methyl-2-phenylpropanamide], the IC50 was 15600 nM.

Still in this test, the particulars now being: 60 minute pre-incubation with compound, 2 μM nifedipine, depolarized with 80 mM KCl.
In the case of `CCC[C@@H](C(=O)N[C@H]1CC[C@@H]2CN(Cc3ccc(C(F)(F)F)cc3)C[C@@H]21)N(C)C(=O)OC(C)(C)C` [Example 314, tert-butyl methyl((S)-1-oxo-1-((3aR,4S,6aS)-2-(4-(trifluoromethyl)benzyl)octahydrocyclopenta[c]pyrrol-4-ylamino)pentan-2-yl)carbamate], the IC50 turned out to be 2150 nM.

In the case of `CCN([C@@H](CC(C)C)C(=O)N[C@H]1CC[C@@H]2CN(Cc3cccc(C(F)(F)F)c3)C[C@@H]21)S(C)(=O)=O` [Example 518, N^2-ethyl-N^2-(methylsulfonyl)-N^1-{(3aR,4S,6aS)-2-[3-(trifluoromethyl)benzyl]octahydrocyclopenta[c]pyrrol-4-yl}-L-leucinamide], the half-inhibitory concentration (IC50) came to 810 nM.

Consider `CC(C)C[C@H](NCC(C)(C)C)C(=O)N[C@@H]1CC[C@H]2CN(S(=O)(=O)c3cccc(C(F)(F)F)c3)C[C@H]21` [Example 254, N^2-neopentyl-N^1-((3aS,4R,6aR)-2-{[3-(trifluoromethyl)phenyl]sulfonyl}octahydrocyclopenta[c]pyrrol-4-yl)-L-leucinamide], for which the concentration for half-maximal inhibition (IC50) was 720 nM.

Turning to `O=C(N[C@H]1CC[C@H]2CN(Cc3cccc(OC(F)(F)F)c3)C[C@H]21)C(C1CCCCC1)C1CCCCC1` [Example 63, 2,2-dicyclohexyl-N-{(3aS,4S,6aR)-2-[3-(trifluoromethoxy)benzyl]octahydrocyclopenta[c]pyrrol-4-yl}acetamide], the IC50 stood at 600 nM.

Turning to `CCC[C@H](NC)C(=O)N[C@H]1CC[C@@H]2CN(S(=O)(=O)c3cccc4ccccc34)C[C@@H]21` [Example 540, N^2-methyl-N^1-[(3aR,4S,6aS)-2-(1-naphthylsulfonyl)octahydrocyclopenta[c]pyrrol-4-yl]-L-norvalinamide], the IC50 was 1670 nM.

In the case of `CC(C)(C)C[C@H](NCC1CCC1)C(=O)N[C@H]1CC[C@@H]2CN(S(=O)(=O)c3ccc(C(F)(F)F)cc3)C[C@@H]21` [Example 472, N^2-(cyclobutylmethyl)-4-methyl-N^1-((3aR,4S,6aS)-2-{[4-(trifluoromethyl)phenyl]sulfonyl}octahydrocyclopenta[c]pyrrol-4-yl)-L-leucinamide], the half-inhibitory concentration (IC50) is 1270 nM.

As to `CCN(C(=O)[C@H](CC(C)(C)C)N(C)C(=O)OC(C)(C)C)[C@H]1CC[C@@H]2CN(S(=O)(=O)c3ccc(C(F)(F)F)cc3)C[C@@H]21` [Example 296, tert-butyl(S)-1-(ethyl((3aR,4S,6aS)-2-(4-(trifluoromethyl)phenylsulfonyl)octahydrocyclopenta[c]pyrrol-4-yl)amino)-4,4-dimethyl-1-oxopentan-2-yl(methyl)carbamate], the IC50 was determined as 2140 nM.

Regarding `CCC[C@@H](C(=O)N[C@H]1CC[C@@H]2CN(S(=O)(=O)c3cccnc3)C[C@@H]21)N(C)C(=O)OC(C)(C)C` [Example 530, Tert-butyl methyl((S)-1-oxo-1-((3aR,4S,6aS)-2-(pyridin-3-ylsulfonyl)octahydrocyclopenta[c]pyrrol-4-ylamino)pentan-2-yl)carbamate], the IC50 is 7630 nM.

As for `CC(C)N[C@@H](CC(C)(C)C)C(=O)N[C@H]1CC[C@@H]2CN(c3cccc(C(F)(F)F)n3)C[C@@H]21` [Example 491, N^2-isopropyl-4-methyl-N^1-{(3aR,4S,6aS)-2-[6-(trifluoromethyl)pyridin-2-yl]octahydrocyclopenta[c]pyrrol-4-yl}-L-leucinamide], the IC50 turned out to be 260 nM.

Turning to `CN[C@@H](CC(C)C)C(=O)N[C@H]1CC[C@H]2CN(S(=O)(=O)c3ccc(C(F)(F)F)cc3)C[C@H]21` [Example 457, N^2-methyl-N^1-((3aS,4S,6aR)-2-{[4-(trifluoromethyl)phenyl]sulfonyl}octahydrocyclopenta[c]pyrrol-4-yl)-L-leucinamide], the IC50 was found to be 3070 nM.

As for `CC(C)C(C(=O)N[C@H]1CC[C@@H]2CN(CCCc3ccccc3)C[C@@H]21)c1ccccc1` (stereo partly drawn) [Example 105, 3-methyl-2-phenyl-N-[(3aR,4S,6aS)-2-(3-phenylpropyl)octahydrocyclopenta[c]pyrrol-4-yl]butanamide], the IC50 was 1500 nM.

As to `O=[N+]([O-])c1ccccc1S(=O)(=O)N[C@H]1CC[C@@H]2CN(S(=O)(=O)c3ccc(C(F)(F)F)cc3)C[C@@H]21` [Example 299, 2-nitro-N-((3aR,4S,6aS)-2-{[4-(trifluoromethyl)phenyl]sulfonyl}octahydrocyclopenta[c]pyrrol-4-yl)benzenesulfonamide], the IC50 amounted to 3680 nM.

On to `O=C(N[C@H]1CC[C@@H]2CN(S(=O)(=O)c3cccc(C(F)(F)F)c3)C[C@@H]21)[C@@H]1CCCCN1` [Example 390, (2S)—N-((3aR,4S,6aS)-2-{[3-(trifluoromethyl)phenyl]sulfonyl}octahydrocyclopenta[c]pyrrol-4-yl)piperidine-2-carboxamide], for which the IC50 was determined as 2460 nM.

Regarding `CC(C)[C@@H](C(=O)N[C@@H]1CC[C@H]2CN(Cc3ccccc3)C[C@H]21)N(C)C(=O)OC(C)(C)C` [Example 232, tert-butyl(S)-1-((3aS,4R,6aR)-2-benzyloctahydrocyclopenta[c]pyrrol-4-ylamino)-3-methyl-1-oxobutan-2-yl(methyl)carbamate], the IC50 worked out at 3600 nM.

In the case of `CCC[C@@H](C(=O)N[C@H]1CC[C@@H]2CN(S(=O)(=O)c3ccc(F)c(Cl)c3)C[C@@H]21)N(C)C(=O)OC(C)(C)C` [Example 529, Tert-butyl (S)-1-((3aR,4S,6aS)-2-(3-chloro-4-fluorophenylsulfonyl)octahydrocyclopenta[c]pyrrol-4-ylamino)-1-oxopentan-2-yl(methyl)carbamate], the IC50 stood at 960 nM.

As for `CC(C)(C)C[C@H](NC(=O)OC(C)(C)C)C(=O)N[C@H]1CC[C@@H]2CN(Cc3ccccc3)C[C@@H]21` [Example 226, tert-butyl(S)-1-((3aR,4S,6aS)-2-benzyloctahydrocyclopenta[c]pyrrol-4-ylamino)-4,4-dimethyl-1-oxopentan-2-ylcarbamate], the IC50 came to 4060 nM.

As to `CC(C)OC(=O)N[C@@H](CC(C)(C)C)C(=O)N[C@H]1CC[C@@H]2CN(Cc3ccc(C(F)(F)F)cc3)C[C@@H]21` [Example 525, Isopropyl (S)-4,4-dimethyl-1-oxo-1-((3aR,4S,6aS)-2-(4-(trifluoromethyl)benzyl)octahydrocyclopenta[c]pyrrol-4-ylamino)pentan-2-ylcarbamate], the IC50 is 1390 nM.

Regarding `CC(C)(C)[C@H](N)C(=O)N[C@H]1CC[C@@H]2CN(S(=O)(=O)c3ccc(C(F)(F)F)cc3)C[C@@H]21` [Example 408, 3-methyl-N^1-((3aR,4S,6aS)-2-{[4-(trifluoromethyl)phenyl]sulfonyl}octahydrocyclopenta[c]pyrrol-4-yl)-L-valinamide], the IC50 amounted to 5110 nM.

`CC(C)(C)C[C@H](NC(=O)OC(C)(C)C)C(=O)N[C@H]1CC[C@@H]2CN(S(=O)(=O)c3ccc(C(F)(F)F)cc3)C[C@@H]21` [Example 344, tert-butyl(S)-4,4-dimethyl-1-oxo-1-((3aR,4S,6aS)-2-(4-(trifluoromethyl)phenylsulfonyl)octahydrocyclopenta[c]pyrrol-4-ylamino)pentan-2-ylcarbamate]: the half-inhibitory concentration (IC50) stood at 990 nM.

Take `CC[C@H](C)[C@@H](C(=O)N[C@@H]1CC[C@H]2CN(S(=O)(=O)c3ccc(C(F)(F)F)cc3)C[C@H]21)N(C)C(=O)OC(C)(C)C` [Example 335, tert-butyl methyl((2S,3S)-3-methyl-1-oxo-1-((3aS,4R,6aR)-2-(4-(trifluoromethyl)phenylsulfonyl)octahydrocyclopenta[c]pyrrol-4-ylamino)pentan-2-yl)carbamate]: the IC50 came out at 830 nM.

Regarding `O=S(=O)(N[C@H]1CC[C@@H]2CN(Cc3ccccc3)C[C@@H]21)c1cccc(C(F)(F)F)c1` [Example 556, N-[(3aR,4S,6aS)-2-benzyloctahydrocyclopenta[c]pyrrol-4-yl]-3-(trifluoromethyl)benzenesulfonamide], the IC50 is 2580 nM.

For the molecule `CC(C)C[C@H](NS(=O)(=O)C(C)C)C(=O)N[C@@H]1CC[C@H]2CN(Cc3cccc(C(F)(F)F)c3)C[C@H]21` [Example 522, N^2-(isopropylsulfonyl)-N^1-{(3aS,4R,6aR)-2-[3-(trifluoromethyl)benzyl]octahydrocyclopenta[c]pyrrol-4-yl}-L-leucinamide], the 50% inhibitory concentration (IC50) stood at 2900 nM.

For the molecule `CN[C@H](C(=O)N[C@@H]1CC[C@H]2CN(S(=O)(=O)c3ccc(C(F)(F)F)cc3)C[C@H]21)C(C)C` [Example 402, N^2-methyl-N^1-((3aS,4R,6aR)-2-{[4-(trifluoromethyl)phenyl]sulfonyl}octahydrocyclopenta[c]pyrrol-4-yl)-L-valinamide], the IC50 came to 2060 nM.

The same test, now with this note: IMR-32, @ 10 μM, 3 minute pre-incubation (*), read-out: percent inhibition.
Take `C[C@@H](C(=O)N[C@H]1CC[C@@H]2CN(Cc3ccccc3)C[C@@H]21)c1ccccc1` [Example 37, (2R)—N-[(3aR,4S,6aS)-2-benzyloctahydrocyclopenta[c]pyrrol-4-yl]-2-phenylpropanamide]: the inhibition at 10 µM turned out to be 15%.

As to `C[C@H](C(=O)N[C@@H]1CC[C@H]2CN(Cc3ccccc3)C[C@H]21)c1ccccc1` [Example 19, (2S)—N-[(3aS,4R,6aR)-2-benzyloctahydrocyclopenta[c]pyrrol-4-yl]-2-phenylpropanamide], the inhibition at 10 µM worked out at 25%.

What is called IC50 is the concentration that gives 50% inhibition. As a reminder, the inhibition is the percentage by which the read-out fell short of the control.
